Results as given in the NIST ThermoML archive (doi:10.1021/je1000582).
± gives the expanded uncertainty stated by the source.

Test: activity coefficient (dimensionless); of the first substance listed, at infinite dilution; xn = mol fraction of the nth substance listed
Details: 101 kPa, Liquid, Chromatography, x1 = 0

Structure (SMILES)	activity coefficient (318.15 K)	activity coefficient (328.15 K)	activity coefficient (338.15 K)	activity coefficient (348.15 K)	activity coefficient (358.15 K)	activity coefficient (308.15 K)
Cc1ccccc1C [1,2-dimethylbenzene] + CCCC[n+]1cccc(C)c1.O=S(=O)([O-])C(F)(F)F	2.16 ± 0.15	2.2 ± 0.15	2.25 ± 0.15	2.29 ± 0.16	2.33 ± 0.16	–
Cc1cccc(C)c1 [1,3-dimethylbenzene] + CCCC[n+]1cccc(C)c1.O=S(=O)([O-])C(F)(F)F	2.57 ± 0.17	2.62 ± 0.18	2.67 ± 0.18	2.71 ± 0.18	2.76 ± 0.19	–
Cc1ccc(C)cc1 [1,4-dimethylbenzene] + CCCC[n+]1cccc(C)c1.O=S(=O)([O-])C(F)(F)F	2.46 ± 0.17	2.52 ± 0.17	2.57 ± 0.17	2.62 ± 0.18	2.68 ± 0.18	–
C=CCCCCC [1-heptene] + CCCC[n+]1cccc(C)c1.O=S(=O)([O-])C(F)(F)F	16.4 ± 1.1	15.9 ± 1.1	15.4 ± 1.1	15 ± 1	14.5 ± 1	17.1 ± 1.2
C#CCCCCC [1-heptyne] + CCCC[n+]1cccc(C)c1.O=S(=O)([O-])C(F)(F)F	4.18 ± 0.28	4.28 ± 0.29	4.37 ± 0.3	4.46 ± 0.3	4.53 ± 0.31	4.09 ± 0.28
C#CCCCC [1-hexyne] + CCCC[n+]1cccc(C)c1.O=S(=O)([O-])C(F)(F)F	2.94 ± 0.2	3.03 ± 0.21	3.11 ± 0.21	3.19 ± 0.22	3.27 ± 0.22	2.86 ± 0.19
C#CCCCCCC [1-octyne] + CCCC[n+]1cccc(C)c1.O=S(=O)([O-])C(F)(F)F	5.88 ± 0.4	5.97 ± 0.41	6.05 ± 0.41	6.14 ± 0.42	6.23 ± 0.42	–
C=CCCC [1-pentene] + CCCC[n+]1cccc(C)c1.O=S(=O)([O-])C(F)(F)F	8.44 ± 0.58	8.23 ± 0.56	8.03 ± 0.55	7.88 ± 0.54	7.73 ± 0.53	8.67 ± 0.59
COC(C)(C)C [2-methoxy-2-methylpropane] + CCCC[n+]1cccc(C)c1.O=S(=O)([O-])C(F)(F)F	4.22 ± 0.29	4.23 ± 0.29	4.23 ± 0.29	4.24 ± 0.29	4.24 ± 0.29	4.21 ± 0.29
CC(C)=O [acetone] + CCCC[n+]1cccc(C)c1.O=S(=O)([O-])C(F)(F)F	0.752 ± 0.049	0.762 ± 0.05	0.77 ± 0.05	0.776 ± 0.051	0.783 ± 0.051	0.743 ± 0.049
c1ccccc1 [benzene] + CCCC[n+]1cccc(C)c1.O=S(=O)([O-])C(F)(F)F	1.23 ± 0.08	1.25 ± 0.08	1.27 ± 0.08	1.29 ± 0.08	1.31 ± 0.09	1.2 ± 0.08
CCCCO [butan-1-ol] + CCCC[n+]1cccc(C)c1.O=S(=O)([O-])C(F)(F)F	1.42 ± 0.09	1.34 ± 0.09	1.26 ± 0.08	1.2 ± 0.08	1.15 ± 0.07	–
C1CCCCCC1 [cycloheptane] + CCCC[n+]1cccc(C)c1.O=S(=O)([O-])C(F)(F)F	15.4 ± 1.1	14.6 ± 1	13.8 ± 0.9	13.2 ± 0.9	12.5 ± 0.9	16.4 ± 1.1
C1CCCCC1 [cyclohexane] + CCCC[n+]1cccc(C)c1.O=S(=O)([O-])C(F)(F)F	12.4 ± 0.8	11.7 ± 0.8	11.1 ± 0.8	10.6 ± 0.7	10.1 ± 0.7	13.2 ± 0.9
C1CCCCCCC1 [cyclooctane] + CCCC[n+]1cccc(C)c1.O=S(=O)([O-])C(F)(F)F	19.8 ± 1.4	18.6 ± 1.3	17.5 ± 1.2	16.5 ± 1.1	15.7 ± 1.1	–
C1CCCC1 [cyclopentane] + CCCC[n+]1cccc(C)c1.O=S(=O)([O-])C(F)(F)F	8.89 ± 0.61	8.51 ± 0.58	8.15 ± 0.56	7.8 ± 0.53	7.54 ± 0.51	9.4 ± 0.64
CCCCCCCCCC [decane] + CCCC[n+]1cccc(C)c1.O=S(=O)([O-])C(F)(F)F	94.9 ± 6.5	87.6 ± 6	80.2 ± 5.5	74.6 ± 5.1	69.5 ± 4.8	104 ± 7.2
CCOCC [diethyl ether] + CCCC[n+]1cccc(C)c1.O=S(=O)([O-])C(F)(F)F	4.24 ± 0.29	4.18 ± 0.28	4.14 ± 0.28	4.1 ± 0.28	4.07 ± 0.28	4.29 ± 0.29

Structure (SMILES)	activity coefficient (318.15 K)	activity coefficient (328.15 K)	activity coefficient (338.15 K)	activity coefficient (348.15 K)	activity coefficient (358.15 K)	activity coefficient (308.15 K)
CCCOCCC [dipropyl ether] + CCCC[n+]1cccc(C)c1.O=S(=O)([O-])C(F)(F)F	10.1 ± 0.7	9.86 ± 0.67	9.6 ± 0.65	9.35 ± 0.64	9.14 ± 0.62	10.4 ± 0.7
CCO [ethanol] + CCCC[n+]1cccc(C)c1.O=S(=O)([O-])C(F)(F)F	0.907 ± 0.058	0.867 ± 0.055	0.827 ± 0.053	0.79 ± 0.051	0.759 ± 0.05	–
CCc1ccccc1 [ethylbenzene] + CCCC[n+]1cccc(C)c1.O=S(=O)([O-])C(F)(F)F	2.76 ± 0.19	2.78 ± 0.19	2.8 ± 0.19	2.81 ± 0.19	2.83 ± 0.19	–
CCCCCCC [heptane] + CCCC[n+]1cccc(C)c1.O=S(=O)([O-])C(F)(F)F	32.7 ± 2.2	30.8 ± 2.1	29 ± 2	27.5 ± 1.9	26.1 ± 1.8	35.1 ± 2.4
C=CCCCC [hex-1-ene] + CCCC[n+]1cccc(C)c1.O=S(=O)([O-])C(F)(F)F	11.5 ± 0.8	11.2 ± 0.8	10.9 ± 0.7	10.6 ± 0.7	10.3 ± 0.7	11.9 ± 0.8
CCCCCC [hexane] + CCCC[n+]1cccc(C)c1.O=S(=O)([O-])C(F)(F)F	23.2 ± 1.6	22.1 ± 1.5	20.9 ± 1.4	20 ± 1.4	19.1 ± 1.3	24.7 ± 1.7
CO [methanol] + CCCC[n+]1cccc(C)c1.O=S(=O)([O-])C(F)(F)F	0.642 ± 0.044	0.617 ± 0.043	0.592 ± 0.042	0.57 ± 0.041	0.551 ± 0.04	–
CCCCCCCCC [nonane] + CCCC[n+]1cccc(C)c1.O=S(=O)([O-])C(F)(F)F	65.9 ± 4.5	61.1 ± 4.2	56.8 ± 3.9	53.2 ± 3.6	49.9 ± 3.4	71.7 ± 4.9
C=CCCCCCC [oct-1-ene] + CCCC[n+]1cccc(C)c1.O=S(=O)([O-])C(F)(F)F	23.2 ± 1.6	22.3 ± 1.5	21.5 ± 1.5	20.8 ± 1.4	20 ± 1.4	24.3 ± 1.7
CCCCCCCC [octane] + CCCC[n+]1cccc(C)c1.O=S(=O)([O-])C(F)(F)F	46.3 ± 3.2	43.4 ± 3	40.7 ± 2.8	38.5 ± 2.6	36.2 ± 2.5	49.6 ± 3.4
CCCC(C)=O [pentan-2-one] + CCCC[n+]1cccc(C)c1.O=S(=O)([O-])C(F)(F)F	1.35 ± 0.09	1.36 ± 0.09	1.38 ± 0.09	1.39 ± 0.09	1.41 ± 0.09	–
CCC(=O)CC [pentan-3-one] + CCCC[n+]1cccc(C)c1.O=S(=O)([O-])C(F)(F)F	1.39 ± 0.09	1.42 ± 0.09	1.44 ± 0.09	1.46 ± 0.1	1.48 ± 0.1	–
CCCCC [pentane] + CCCC[n+]1cccc(C)c1.O=S(=O)([O-])C(F)(F)F	17.3 ± 1.2	16.4 ± 1.1	15.5 ± 1.1	14.8 ± 1	14.1 ± 1	18.5 ± 1.3
CCCO [propan-1-ol] + CCCC[n+]1cccc(C)c1.O=S(=O)([O-])C(F)(F)F	1.11 ± 0.07	1.06 ± 0.07	1 ± 0.06	0.958 ± 0.06	0.919 ± 0.058	–
C1CCOC1 [tetrahydrofuran] + CCCC[n+]1cccc(C)c1.O=S(=O)([O-])C(F)(F)F	1.2 ± 0.08	1.21 ± 0.08	1.23 ± 0.08	1.24 ± 0.08	1.25 ± 0.08	1.19 ± 0.08
c1ccsc1 [thiophene] + CCCC[n+]1cccc(C)c1.O=S(=O)([O-])C(F)(F)F	0.898 ± 0.057	0.919 ± 0.058	0.937 ± 0.059	0.955 ± 0.06	0.972 ± 0.061	–
Cc1ccccc1 [toluene] + CCCC[n+]1cccc(C)c1.O=S(=O)([O-])C(F)(F)F	1.76 ± 0.12	1.79 ± 0.12	1.82 ± 0.12	1.85 ± 0.12	1.88 ± 0.13	–
O [water] + CCCC[n+]1cccc(C)c1.O=S(=O)([O-])C(F)(F)F	0.89 ± 0.057	0.857 ± 0.055	0.82 ± 0.053	0.789 ± 0.051	0.765 ± 0.05	–
